In PubChem BioAssay (NCI) one finds TGI data, which are given here for 16 compounds.

What all share (assay): NCI tumour cell line growth inhibition, 48 h
In assay [1] the test system is SK-MEL-2 melanoma.
The test system of assay [2] is MDA-MB-435.
Assay [3] concerns IGROV1 ovarian.
The subject of assay [4] is RPMI-8226 leukemia.
The test system of assay [5] is SF-295 CNS.
In assay [6] the test system is MCF7 breast.
Assay [7] deals with NCI-H522 lung.
For assay [8], the system named is SK-MEL-28 melanoma.
Assay [9] concerns SF-539 CNS.
For assay [10], the system named is LOX IMVI melanoma.
Assay [11] relates to M14 melanoma.
Assay [12] has as its system COLO 205 colon.
Assay [13] relates to NCI-H226 lung.
Assay [14] relates to SNB-75 CNS.
In assay [15] the test system is OVCAR-3 ovarian.
In assay [16] the test system is 786-0 renal.
The test system of assay [17] is UO-31 renal.
Assay [18] has as its system CAKI-1 renal.
The subject of assay [19] is UACC-257 melanoma.
Assay [20] relates to SR leukemia.

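Each compound was tested at five concentrations against cells in 96-well plates for 48 hours. At the TGI there is no net growth.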 Where a SMILES comes first, the peptide text is derived from it. Bridges are numbered along the chain shown (N, C = ends). [ ]: non-standard residue; d: D form. The star is where a group is joined. PhAc = O=C(Cc1ccccc1)*

On to `CCC(=O)C1(N2CCOCC2)CCN(CCCC(=O)c2ccc(F)cc2)CC1`, for which the TGI in [1], in [2], in [3], in [4], in assay [5] and in assay [6] was over 100 µM each time. The TGI in assay [7], in assay [8], in [9], in assay [10], in [11] and in assay [12] was over 100 µM in each case. In addition, the TGI in [13], in assay [14], in [15], in [16], in assay [17] and in assay [18] was over 100 µM throughout.
For `O=C(Cc1ccccc1)N[C@@H]1COC(=O)[C@@H]2CCCN2C(=O)[C@@H]2CCCN2C1=O` (PhAc-[dS]-Pro-Pro; ester 1-C), the TGI in assay [1], in [2], in assay [3], in assay [19], in [5] and in assay [6] was over 100 µM each time. In addition, the TGI in assay [8], in [9], in assay [10], in [11], in assay [12] and in assay [15] was over 100 µM throughout. Moreover, the TGI in assay [16], in assay [20] and in [18] was over 100 µM in each case.
As to `COc1c(C)c2c(c3c1c(=O)c1ccccc1n3C)C=CC(C)(C)O2`, the TGI was 48.3 µM in assay [1]; over 100 µM in assay [3]; 76.6 µM in [19]; 76.8 µM in assay [4]; 45.8 µM in [5]; 67.3 µM in assay [7]. Also, the TGI in [8] was 55.1 µM; in assay [9], 44.9 µM; in [10], 32.9 µM; in [11], 37.9 µM; in assay [12], 99.1 µM; in [13], over 100 µM. Besides, the TGI in [14] was 62.8 µM; in assay [15] it was 41 µM; in [16], 69.8 µM; in assay [17] it was 66 µM; in assay [20], 58.6 µM; in assay [18] it was 82.9 µM.
In the case of `Cc1nc2c(O)cc3c4c(=O)n(C)c(=O)n(C)c4n(Cc4ccccc4)c3c2nc1C`, the TGI in assay [1] was 31.9 µM; in assay [2] it was 33.9 µM; in assay [19], 33.1 µM; in [4], 51.8 µM; in assay [5], over 100 µM; in assay [6], 32.2 µM. Moreover, the TGI was 28 µM in [8]; 30 µM in assay [9]; 37.4 µM in assay [10]; 36.6 µM in assay [11]; 28 µM in [12]; 55.3 µM in [13]. Also, the TGI in assay [16] was 32.8 µM; in assay [17] it was 31.4 µM; in [20] it was 57.6 µM.
Consider `O=C1CCCC2=C1CC1=C(CCCC1=O)N2c1ccccc1C(=O)O`, for which the TGI in [3], in [4], in assay [6], in [8], in assay [9] and in assay [10] was over 100 µM throughout. In addition, the TGI in [11], in [13], in assay [14], in assay [15], in [16] and in [17] was over 100 µM each time. For the same compound, the TGI in assay [20] and in assay [18] was over 100 µM in each case.
As to `CC(C)C1C(=O)NC(CO)Cc2c[nH]c3c(C(c4c[nH]c5ccccc45)C(O)CO)ccc(c23)N1C` (configuration not stated), the TGI in assay [1], in assay [3], in [19], in [4], in assay [5] and in assay [7] was over 100 µM throughout. Also, the TGI in assay [8] is over 100 µM; in [9], over 100 µM; in [10], over 100 µM; in assay [11], over 100 µM; in assay [12] it was 38.6 µM; in [14], over 100 µM. Moreover, the TGI in [15], in assay [16], in assay [17] and in [20] was over 100 µM in each case.
Regarding `O=C(/C=C/c1ccc(O)c(O)c1)OC1C[C@@](O)(C(=O)O)C[C@@H](O)[C@H]1OC(=O)/C=C/c1ccc(O)c(O)c1` (some centres not stated), the TGI in assay [1], in assay [3], in [19], in assay [4], in [5] and in assay [7] was over 100 µM each time. In addition, the TGI in assay [8], in assay [9], in assay [10], in assay [11], in [12] and in assay [13] was over 100 µM in each case. Besides, the TGI in assay [15], in assay [16], in [17] and in assay [20] was over 100 µM in each case.
Take `Cc1c(C#N)c(N)[nH]c(=S)c1C#N`: the TGI in assay [1], in assay [3], in assay [19], in [4], in assay [5] and in [6] was over 100 µM in each case. Also, the TGI in assay [7], in assay [8], in assay [9], in assay [10], in [13] and in [14] was over 100 µM in each case. Moreover, the TGI in assay [15], in assay [16], in [17], in assay [20] and in assay [18] was over 100 µM each time.
Regarding `CCOC(=O)C1(C#N)C(c2ccccc2)CC(O)(c2ccc([N+](=O)[O-])cc2)C(C(=O)c2ccc([N+](=O)[O-])cc2)C1c1ccccc1` (configuration not stated), the TGI in assay [1], in [3], in [19], in [4], in assay [5] and in assay [7] was over 100 µM throughout. The TGI in assay [8] was over 100 µM; in [10] it was over 100 µM; in [11], over 100 µM; in assay [12] it was over 100 µM; in assay [13] it was over 100 µM; in [14] it was 96.5 µM. Besides, the TGI in [15], in [16], in assay [17], in assay [20] and in assay [18] was over 100 µM in each case.
With `Cc1ccc2c3c(cnc2n1)C(=O)OCCN3C`, the TGI in assay [1], in [2], in assay [3], in [19], in assay [5] and in assay [6] was over 100 µM each time. Moreover, the TGI in assay [7], in assay [8], in assay [9], in assay [10], in assay [11] and in assay [12] was over 100 µM throughout. Further, the TGI in assay [15], in assay [16], in assay [17], in assay [20] and in assay [18] was over 100 µM in each case.
`Cc1cc(S(=O)(=O)NC(=C(C#N)C#N)[n+]2ccc(N(C)C)cc2)c([S-])cc1Cl`: the TGI in [1], in assay [2], in assay [3], in assay [19], in assay [4] and in assay [5] was over 100 µM throughout. Also, the TGI in assay [6], in assay [7], in assay [8], in [9], in [11] and in assay [12] was over 100 µM throughout. The TGI in assay [13], in [15], in assay [16], in assay [17], in assay [20] and in assay [18] was over 100 µM throughout.
Consider `C=C1C(=O)OC2/C=C(\C)C3OC3/C=C(/C(=O)OC)C(O)C(OC(=O)C3(C)OC3C)C12` (configuration not stated), for which the TGI came to 6.46 µM in assay [1]; 8.45 µM in [3]; 3.45 µM in assay [19]; 27 µM in assay [5]; 0.6 µM in [7]; 3.17 µM in assay [8]. The TGI in assay [9] was 5.46 µM; in assay [10], 3.75 µM; in [11], 4.7 µM; in [12], 2.52 µM; in assay [13] it was 32.2 µM; in assay [14] it was 26.3 µM. In addition, the TGI in [15] was found to be 10 µM; in assay [16] it was 3.26 µM; in assay [17] it was 27.3 µM; in assay [20] it was 3.05 µM; in assay [18], 4.97 µM.
In the case of `C=C[C@]1(O)CCC[C@]2(C)C(=O)CCC12C` (some centres not stated), the TGI in [1], in assay [2], in [3], in [19], in [4] and in assay [5] was over 100 µM each time. Further, the TGI in [6], in assay [7], in assay [8], in assay [9], in assay [10] and in assay [11] was over 100 µM each time. Moreover, the TGI in [12], in [13], in [15], in [16], in [17] and in assay [20] was over 100 µM in each case.
Take `Cc1ccc(/C=N/Nc2nc3ccccc3s2)s1`: the TGI in assay [1], in [2], in assay [3], in [19], in [4] and in assay [5] was over 100 µM in each case. Further, the TGI in [6], in [7], in assay [8], in assay [9], in assay [10] and in [11] was over 100 µM in each case. Besides, the TGI in [12], in assay [13], in assay [14], in assay [15], in assay [16] and in [17] was over 100 µM in each case. Further, the TGI in assay [18] is over 100 µM.
For `Cc1nnc2sc(Cl)nn12`, the TGI is 90.3 µM in assay [1]; 20.2 µM in assay [2]; 30.7 µM in assay [3]; over 100 µM in [4]; 36.2 µM in assay [5]; 29.5 µM in assay [6]. Besides, the TGI in [7] turned out to be 23.9 µM; in assay [8], 34.2 µM; in [9], 47.1 µM; in [10] it was 28.5 µM; in [11], 28.1 µM; in assay [12] it was 29.9 µM. Also, the TGI in assay [13] is 86.2 µM; in assay [14] it was over 100 µM; in assay [15], 33.6 µM; in assay [16] it was 86.8 µM; in assay [17], 74 µM; in assay [18], 43.6 µM.
With `CC1=C(C)CC(C#N)(C#N)C(C#N)(C#N)C1`, the TGI in assay [1] is over 10 µM; in assay [3] it was over 5.87 µM; in [19], over 10 µM; in assay [4], over 6.71 µM; in [5] it was over 10 µM; in [6], over 10 µM. For the same compound, the TGI in assay [7] is over 2.72 µM; in [8] it was over 10 µM; in [9], over 10 µM; in assay [10], over 10 µM; in [11], over 10 µM; in [12] it was over 6.8 µM. The TGI in [13] is over 10 µM; in [14], over 10 µM; in assay [15], 9.68 µM; in [16] it was over 8.08 µM; in assay [17], over 10 µM; in assay [20] it was over 5.17 µM. The compound further showed a TGI in assay [18] of over 10 µM.
